Results as given in patent publication US20050169883A1, “Preblocking with non-ha gags increases effectiveness of ha conjugated anticancer agents” (priority 2002, published 2005).

Assays:
[1] = tested on: human prostate cancer cell-line DU-145; assay: In vitro cytotoxicity against prostate cancer cell line; format: cell-based; conditions: DU-145 cells, DOX equivalent
Text: The in vitro cytotoxicity of HPMA-HA-DOX with 17% and 36% HA loading against cultured prostate cancer cell line DU-145 was examined. FIG. 8 depicts the in vitro cytotoxicity results of the HPMA-HA-DOX bioconjugates. The cytotoxicity of targeted HPMA-HA-DOX bioconjugates were dramatically higher than non-targeted HPMA-DOX conjugate (Table 2), and 8- to 12-fold higher than the free DOX drug against this prostate cancer cell-line.

[2] = tested on: SK-OV-3 human ovarian cancer cells; assay: In vitro cytotoxicity, MTT dye uptake; format: cell-based; conditions: 72 h, SK-OV-3 cells, 3 days incubation, DOX equivalent
Experimental: (§1) HBL-100, a human breast cancer cell-line, was maintained in culture in high glucose D-MEM (Dulbecco's Modified Eagle Medium), which was supplemented with 10% γ-irradiated fetal bovine serum (FBS) and 1% sodium pyruvate; SK-OV-3, a human ovarian cancer cell-line was cultured in D-MEM/F12+10% FBS; HCT-116, a colon tumor cell-line, was maintained in culture in α-MEM (Minimal Essential Medium, Eagle)+10% FBS. 4T1 mouse breast cancer cells and TSU human bladder cancer cells were cultured with 10% calf serum-90% Dulbecco's modified Eagle's medium (DMEM) at 37° C. in 5% CO2 incubator.
(§2) All ^1H NMR spectral data were obtained using an NR-200 FT-NMR spectrometer at 200 MHz (IBM Instruments Inc.). UV-Vis spectra were recorded on a Hewlett Packard 8453 UV-Vis diode array spectrophotometer (Palo Alto, Calif.). HA was characterized by gel permeation chromatography (GPC) was on the following system: Waters 515 HPLC pump, Waters 410 differential refractometer, and Waters™ 486 tunable absorbance detector, Waters Ultrahydrogel 250 and 2000 columns (7.8 mm ID×30 cm) (Milford, Mass.) were used for GPC analysis, the eluent was 150 mM pH 6.5 phosphate buffer/MeOH=80:20 (v/v), and the flow rate was 0.5 in L/min. The system was calibrated with HA standards supplied by Dr. O. Wik (Pharmacia). […] Cell viability in cell culture was determined by thiazoyl blue (MTT) dye uptake protocols measured at 540 nm, which was recorded on a BIO-RAD M-450 microplate reader (Hercules, Calif.). […] Fluorescence images were taken using FITC settings with the 488 nm excitation line and a 522 nm 32 bandpass filter was used to collect the images.
(§3) The cytotoxicity of HA-DOX and HPMA-HA-DOX conjugates against HBL-100, SKOV-3 and HCT-116 cells was determined using a 96-well plate format in quadruplicate with increasing doses range from 0.001-10 mg/mL of DOX equivalent. […] Thus, a 2-μL aliquot of the stock solution was added to each well, and cells were continuously incubated at 37° C., 5% CO2 for 3 days with the test substance, and cell viability was determined using MTT dye uptake at 540 nm. […]

[3] = tested on: HCT-116 human colon cancer cells; assay: In vitro cytotoxicity, MTT dye uptake; format: cell-based; conditions: 72 h, HCT-116 cells, 3 days incubation, DOX equivalent
Experimental: as §1, §2, §3

[4] = tested on: HBL-100 human breast cancer cells; assay: In vitro cytotoxicity, MTT dye uptake; format: cell-based; conditions: 72 h, HBL-100 cells, 3 days incubation, DOX equivalent
Experimental: as §1, §2, §3

4T1 tumors = assay: Chondroitin sulfate blocking study, survival of mice bearing 4T1 tumors; format: in vivo, mouse; conditions: experiment period of 33 days; ten i.p. injections every other day
Experimental: This procedure was carried out every other day for 20 days, and mice received a total of ten injections. The mice were recorded for their survival days and the survival rate was calculated.
This procedure was carried out every other day for 20 days, and mice received a total of ten injections. The mice were recorded for their survival during a 33 day experimental period s and the survival rate was calculated.

4T1 breast cancer cells = assay: Spontaneous lymph node metastasis of 4T1 cells injected into foot pad; format: in vivo, mouse; conditions: for Weight of lymph node: s.c. three times a week for three weeks, 4 mg/kg Taxol equivalent
Experimental: The 4T1 breast cancer cells were injected into foot pat of syngenic BABL/c mice. […] About 0.2 ml of above agents were administrated by subcutaneous (s.c.) injection at the middle of leg three times a week, from where HA-drug could be drained/absorbed into popliteal and inguinal lymph path, in which the spontaneous metastases were expected to take place.
The lymph nodes were carefully dissected out from surrounding fat, measured for the weights and processed for pathology.

[5] = tested on: 4T1 mouse breast cancer cells; assay: In vivo anti-tumor effect, 4T1 tumor model in BABL/c mice; conditions: 4 mg/kg Taxol or equivalent, i.p. every other day; versus vehicle and Taxol alone
Experimental: The 4T1 mouse breast cancer cells (10^6/site) were subcutaneously injected into either BABL/c mice and allowed to grow for 2 days for the tumor to be established. […] The injection was carried out every other day for two to four weeks. The tumor sizes were measured twice a week. At the end of experiment, the mice were sacrificed and the tumor were harvested, photographed and weighted.

TSU cells = assay: HA degradation assay; format: cell-based, human; conditions: 48 hours, KM201 200 μg/ml or chloroquine 0.1 mM
Experimental: (§4) The assay was carried out as described (CBU) with some modification. […] In some wells, the media contained 200 μg/ml of KM201 (a neutralization antibody against CD44) or 0.1 mM of chloroquine (an inhibitor of lysosomal enzymes). The media were collected, which contained some of the released and degraded ^3H-HA. […] The media and the supernatant from cells were centrifuged with Centricon 30 (Amicon, Danvers, Mass.). The un-degraded high MW ^3H-HA was retained in the upper chamber.
(§5) This mixture was then separated by filter membrane with MW cut of 30,000 Dalton.

4T1 cells = assay: HA degradation assay; format: cell-based, mouse
Experimental: as §4, §5
CD44 was examined to determine if it was expressed by 4T1 cells and if it could interact with HA. First, CD44 was detected by Western blotting. […] The binding was specific as it could be inhibited by excess of cold HA (FIG. 14B).

[6] = tested on: HA binding sites in the major organs; assay: Chondroitin sulfate pretreatment, organ and tumor up-take of 3H-HA; format: in vivo, mouse
Experimental: The tumors and organs were collected, weighted, and homogenized with ultrasound to make tissue homogenates. The protein concentration was normalized to 0.1 mg/ml. Then, 300 μl of tissue homogenates were mixed with 2.5 ml of scintillation solution and counted for the radioactivity. […] Twenty-four hours later, the mice were sacrificed and the homogenates of tumors and organs were counted for the radioactivity.
This approach did reduce the HA taken up by liver and increased the amount of HA accumulated in tumors.
One day later, the tumors and organs were collected, weighed, homogenized with ultrasound to make tissue lysate at a protein concentration of 0.1 mg/ml. Then, 300 μl of tissue lysate were mixed with 2.5 ml of scintillation solution and counted for the radioactivity.

`COc1cccc2c1C(=O)c1c(O)c3c(c(O)c1C2=O)C[C@@](O)(C(=O)CO)C[C@@H]3O[C@H]1C[C@H](N)[C@H](O)[C@H](C)O1` [DOX, Doxorubicin] was tested, and the IC50 [1] was 31.5 µM, the IC50 [2] was 0.92 µM and the IC50 [3] was 0.35 µM. It also gave an IC50 [4] of 0.15 µM.

In the case of `CC(=O)O[C@H]1C(=O)[C@@]2(C)[C@H]([C@H](OC(=O)c3ccccc3)[C@]3(O)C[C@H](OC(=O)[C@H](O)[C@@H](NC(=O)c4ccccc4)c4ccccc4)C(C)=C1C3(C)C)[C@]1(OC(C)=O)CO[C@@H]1C[C@@H]2O` [Taxol], the survival rate (4T1 tumors) is reported as 60%, the “Inhibition ratio (%)” value (4T1 breast cancer cells; inguinal lymph node metastasis) is reported as 31.8% and the “Weight of lymph node” value (4T1 breast cancer cells; inguinal lymph node) is reported as 9.00 ± 0.79. The “Inhibition ratio (%)” value (4T1 breast cancer cells; popliteal lymph node metastasis) was −1.7%, the “Weight of lymph node” value (4T1 breast cancer cells; popliteal lymph node) was 46.70 ± 5.05 and the “size of 4T1 tumors” value [5] was “did not reduce the size”.

`CCN(CC)CCCC(C)Nc1ccnc2cc(Cl)ccc12` (stereo not shown) [chloroquine] was tested, and the “degradation of high MW 3H-HA by cells” value (TSU cells) was “reduce the degraded ^3H-HA”, the “degradation of high MW 3H-HA by cells” value (4T1 cells; 48 hours, KM201 200 μg/ml or chloroquine 0.1 mM) was “reduce the degraded ^3H-HA” and the “CD44 mediated degradation of 3H-HA” value (4T1 cells; 72 hours) was “inhibited”.

chondroitin sulfate was tested, and the “up-take of HA in the major organs” value ([6]; chondroitin sulfate i.v. two hours before 3H-HA, 24 hours) was “reduced their up-take of HA”, the “3H-HA in tumors versus untreated mice” value ([6]; chondroitin sulfate pretreatment) was “higher” and the “amount of 3H-HA in the liver versus vehicle alone” value ([6]; liver monitored for two days) was “much lower”.
